Experimental data: ChEMBL document CHEMBL1126512, “Synthesis and antitumor evaluation of water soluble taxol phosphates” (Bioorg Med Chem Lett, 1993)
In brackets after ≈: the same amount, converted by molar mass.

Experiments:
[1] = system: Mus musculus; experiment: Antitumor activity against M109 tumor murine lung carcinoma infected mice after ip administration using DMSO an water as vehicle at a dose of 30 mg/kg/inj; type: functional; conditions: route intraperitoneal
[2] = system: Mus musculus; experiment: Antitumor activity against M109 tumor murine lung carcinoma infected mice after ip administration using DMSO an saline as vehicle at a dose of 50 mg/kg/inj; type: functional; conditions: route intraperitoneal
[3] = system: Mus musculus; experiment: Antitumor activity against M109 tumor murine lung carcinoma infected mice after ip administration using DMSO an water as vehicle at a dose of 25 mg/kg/inj; type: functional; conditions: route intraperitoneal
[4] = system: Mus musculus; experiment: Antitumor activity against M109 tumor murine lung carcinoma infected mice after ip administration using DMSO an saline as vehicle at a dose of 30 mg/kg/inj; type: functional; conditions: route intraperitoneal
[5] = Solubility was determined; value ranges from 6-7; type: physicochemical
[6] = Solubility was determined; type: physicochemical
[7] = system: Mus musculus; experiment: Antitumor activity against M109 tumor murine lung carcinoma infected mice after ip administration using DMSO an water as vehicle at a dose of 50 mg/kg/inj; type: functional; conditions: route intraperitoneal
[8] = system: Mus musculus; experiment: Antitumor activity against M109 tumor murine lung carcinoma infected mice after ip administration using DMSO an water as vehicle at a dose of 10 mg/kg/inj; type: functional; conditions: route intraperitoneal
[9] = system: Mus musculus; experiment: Antitumor activity against M109 tumor murine lung carcinoma infected mice after ip administration using DMSO an saline as vehicle at a dose of 10 mg/kg/inj; type: functional; conditions: route intraperitoneal
[10] = system: Mus musculus; experiment: Antitumor activity against M109 tumor murine lung carcinoma infected mice after ip administration using DMSO an saline as vehicle at a dose of 25 mg/kg/inj; 1/6 mice cured; type: functional; conditions: route intraperitoneal
[11] = system: Mus musculus; experiment: Antitumor activity against M109 tumor murine lung carcinoma infected mice after ip administration using DMSO an water as vehicle at a dose of 25 mg/kg/inj; 1/6 mice cured; type: functional; conditions: route intraperitoneal

SMILES: CC(=O)O[C@H]1C(=O)[C@]2(C)[C@@H](OP(=O)([O-])[O-])C[C@H]3OC[C@@]3(OC(C)=O)[C@H]2[C@H](OC(=O)c2ccccc2)[C@]2(O)C[C@H](OC(=O)[C@H](O)[C@@H](NC(=O)c3ccccc3)c3ccccc3)C(C)=C1C2(C)C.[Na+].[Na+]
- Max T/C [1]: 123

SMILES: CC(=O)O[C@H]1C(=O)[C@@]2(C)[C@H]([C@H](OC(=O)c3ccccc3)[C@]3(O)C[C@H](OC(=O)[C@H](OP(=O)(OCc4ccccc4)OCc4ccccc4)[C@@H](NC(=O)c4ccccc4)c4ccccc4)C(C)=C1C3(C)C)[C@]1(OC(C)=O)CO[C@@H]1C[C@@H]2O
- Max T/C [2]: 107

SMILES: CC(=O)O[C@H]1C(=O)[C@@]2(C)[C@H]([C@H](OC(=O)c3ccccc3)[C@]3(O)C[C@H](OC(=O)[C@H](OP(=O)([O-])[O-])[C@@H](NC(=O)c4ccccc4)c4ccccc4)C(C)=C1C3(C)C)[C@]1(OC(C)=O)CO[C@@H]1C[C@@H]2O.[Na+].[Na+]
- Max T/C [3]: 140

SMILES: CC(=O)O[C@H]1C(=O)[C@]2(C)[C@@H](OP(=O)([O-])[O-])C[C@H]3OC[C@@]3(OC(C)=O)[C@H]2[C@H](OC(=O)c2ccccc2)[C@]2(O)C[C@H](OC(=O)[C@H](OP(=O)([O-])[O-])[C@@H](NC(=O)c3ccccc3)c3ccccc3)C(C)=C1C2(C)C.[Na+].[Na+].[Na+].[Na+]
- Max T/C [4]: 103

SMILES: CC(=O)O[C@@]12CO[C@@H]1C[C@H](O)[C@@]1(C)C(=O)[C@H](O)C3=C(C)[C@@H](OC(=O)[C@H](O)[C@@H](NC(=O)OC(C)(C)C)c4ccccc4)C[C@@](O)([C@@H](OC(=O)c4ccccc4)[C@H]21)C3(C)C.O.O.O [DOCETAXEL]
- solubility [5]: 6 µg/mL

SMILES: CC(=O)O[C@H]1C(=O)[C@@]2(C)[C@H]([C@H](OC(=O)c3ccccc3)[C@]3(O)C[C@H](OC(=O)[C@H](O)[C@@H](NC(=O)c4ccccc4)c4ccccc4)C(C)=C1C3(C)C)[C@]1(OC(C)=O)CO[C@@H]1C[C@@H]2O [PACLITAXEL]
- solubility [6]: 0.25 µg/mL (≈ 0.293 µM)
- Max T/C [7]: 270
- Max T/C [8]: 190
- Max T/C [9]: 190
- Max T/C [2]: 270
- Max T/C [10]: 240
- Max T/C [11]: 240
